As a reminder, the IC50 is the concentration at which inhibition is half-maximal. Higher therefore signals a need for much substance.

The source of these data is PMC12526218, “Design, Synthesis and Herbicidal Activity of 1,2,4-Oxadiazole Compounds as Novel Light-Dependent Protochlorophyllide Oxidoreductase Inhibitors” (Molecules, 2025).

For the test, the target named is Light-dependent protochlorophyllide oxidoreductase (AtLPOR). As to the kind of experiment: Plant LPOR ELISA kit on Arabidopsis leaf extract, IC50. It counts as biochemical, Arabidopsis thaliana.
Take `O=[N+]([O-])c1cccc(-c2noc(COCc3ccccc3)n2)c1` [5k, 5-((benzyloxy)methyl)-3-(3-nitrophenyl)-1,2,4-oxadiazole]: the IC50 stood at 83.6 µM.
The same measure for `O=[N+]([O-])c1ccc(-c2noc(COCc3ccccc3)n2)cc1` [5j, 5-((benzyloxy)methyl)-3-(4-nitrophenyl)-1,2,4-oxadiazole]: 111 µM; for `c1ccc(COCc2nc(-c3ccc(OCc4ccccc4)cc3)no2)cc1` [5q, 5-((benzyloxy)methyl)-3-(4-(benzyloxy)phenyl)-1,2,4-oxadiazole]: 17.6 µM.
